The values below come from publication PMC5908784, “Extracellular loops 2 and 3 of the calcitonin receptor selectively modify agonist binding and efficacy” (Biochemical Pharmacology, 2018).

Holding throughout (experiment): cAMP accumulation
What all share (assay type): cell-based

One test deals with T1, hCTR I300A (Homo sapiens, UniProt P30988, I300A).
T1 construct: c-Myc (N); expressed in transfected cells
T1 sequence (P30988 25-474 I300A): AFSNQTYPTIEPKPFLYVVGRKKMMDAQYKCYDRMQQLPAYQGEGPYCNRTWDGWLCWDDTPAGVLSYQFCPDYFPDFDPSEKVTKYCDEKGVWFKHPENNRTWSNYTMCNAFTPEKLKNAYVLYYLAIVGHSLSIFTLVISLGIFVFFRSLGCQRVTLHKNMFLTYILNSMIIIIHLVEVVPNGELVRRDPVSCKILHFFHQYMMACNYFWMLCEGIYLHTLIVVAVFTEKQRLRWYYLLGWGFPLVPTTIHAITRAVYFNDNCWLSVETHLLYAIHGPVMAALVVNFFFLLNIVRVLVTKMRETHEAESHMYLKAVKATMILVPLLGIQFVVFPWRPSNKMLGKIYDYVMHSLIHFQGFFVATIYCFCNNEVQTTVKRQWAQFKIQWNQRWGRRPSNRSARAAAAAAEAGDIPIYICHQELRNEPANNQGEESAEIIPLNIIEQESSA
The following applies: mean ± S.E.M.; for Emax: cAMP maximal response, SEM; for EC50: cAMP, CV1-FlpIn cells, 30 min, IBMX. The essentials: (§1)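 30 min ligand stimulation with IBMX present; cells seeded overnight beforehand. Ethanol extract, dried at RT.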

The target in another test is T2, hCTR R362A (Homo sapiens, UniProt P30988, R362A).
T2 construct: expressed in transfected cells
T2 sequence (P30988 25-474 R362A): T1 sequence (P30988 25-474 I300A) with A276I, R338A
The following applies: for Emax: read-out: Emax (% WT), SEM; for EC50: cAMP, CV1-FlpIn cells, 30 min, IBMX. Put shortly:
as §1

For the next test, the target named is T3, hCTR S364A (Homo sapiens, UniProt P30988, S364A).
T3 construct: c-Myc (N); expressed in transfected cells
T3 sequence (P30988 25-474 S364A): T1 sequence (P30988 25-474 I300A) with A276I, S340A
The following applies: mean ± S.E.M.; for Emax: cAMP maximal response, SEM; for EC50: cAMP, CV1-FlpIn cells, 30 min, IBMX. The essentials:
as §1

Another test has as its target T4, hCTR Y284A (Homo sapiens, UniProt P30988, Y284A).
T4 construct: expressed in transfected cells
T4 sequence (P30988 25-474 Y284A): T1 sequence (P30988 25-474 I300A) with Y260A, A276I
The following applies: mean ± S.E.M.; for Emax: cAMP maximal response, SEM; for EC50: cAMP, CV1-FlpIn cells, 30 min, IBMX. Put shortly:
as §1

In the next test the target is T5, hCTR Y372A (Homo sapiens, UniProt P30988, Y372A).
T5 construct: c-Myc (N); expressed in transfected cells
T5 sequence (P30988 25-474 Y372A): T1 sequence (P30988 25-474 I300A) with A276I, Y348A
Particulars: mean ± S.E.M.; for Emax: cAMP maximal response, SEM; for EC50: cAMP, CV1-FlpIn cells, 30 min, IBMX. The essentials:
as §1

Setting [1] is: R362A, cAMP maximal response, mean ± S.E.M.

SMILES strings stand for the structures. Residue numbers refer to the chain shown, from its start. Where two headings read alike, the source gives them in different places. Where a SMILES comes first, the peptide text is derived from it. Bridges are numbered along the chain shown (N, C = ends).

On to `CC(C)C[C@H](NC(=O)[C@H](CCCCN)NC(=O)CNC(=O)[C@H](CC(C)C)NC(=O)[C@@H](NC(=O)[C@@H]1CSSC[C@H](N)C(=O)N[C@@H](CO)C(=O)N[C@@H](CC(N)=O)C(=O)N[C@@H](CC(C)C)C(=O)N[C@@H](CO)C(=O)N[C@@H]([C@@H](C)O)C(=O)N1)C(C)C)C(=O)N[C@@H](CO)C(=O)N[C@@H](CCC(N)=O)C(=O)N[C@@H](CCC(=O)O)C(=O)N[C@@H](CC(C)C)C(=O)N[C@@H](Cc1c[nH]cn1)C(=O)N[C@@H](CCCCN)C(=O)N[C@@H](CC(C)C)C(=O)N[C@@H](CCC(N)=O)C(=O)N[C@H](C(=O)N[C@@H](Cc1ccc(O)cc1)C(=O)N1CCC[C@H]1C(=O)N[C@@H](CCCNC(=N)N)C(=O)N[C@H](C(=O)N[C@@H](CC(N)=O)C(=O)N[C@H](C(=O)NCC(=O)N[C@@H](CO)C(=O)NCC(=O)N[C@H](C(=O)N1CCC[C@H]1C(N)=O)[C@@H](C)O)[C@@H](C)O)[C@@H](C)O)[C@@H](C)O` [sCT], for which the maximal response (Emax) on hCTR I300A turned out to be 113 ± 11%; on hCTR R362A it was 95 ± 4%; on hCTR S364A it was 102 ± 7%; at hCTR Y284A, 111 ± 11%; at hCTR Y372A, 113 ± 10%.
For `CSCC[C@H](NC(=O)CNC(=O)[C@H](CO)NC(=O)[C@H](Cc1ccccc1)NC(=O)[C@H](CCCNC(=N)N)NC(=O)[C@H](Cc1c[nH]cn1)NC(=O)[C@H](Cc1ccccc1)NC(=O)[C@H](CC(N)=O)NC(=O)[C@H](CC(N)=O)NC(=O)[C@H](CC(C)C)NC(=O)[C@H](CC(N)=O)NC(=O)[C@H](CCCNC(=N)N)NC(=O)[C@H](Cc1c[nH]c2ccccc12)NC(=O)[C@H](Cc1ccc(O)cc1)NC(=O)[C@H](C)NC(=O)[C@H](CO)NC(=O)[C@H](CC(C)C)NC(=O)[C@@H](NC(=O)[C@@H]1CSSC[C@H](N)C(=O)N[C@@H](CO)C(=O)N[C@@H](CC(N)=O)C(=O)N[C@@H](CC(C)C)C(=O)N[C@@H](CO)C(=O)N[C@@H]([C@@H](C)O)C(=O)N1)C(C)C)C(=O)NCC(=O)N[C@@H](Cc1ccccc1)C(=O)NCC(=O)N1CCC[C@H]1C(=O)N[C@@H](CCC(=O)O)C(=O)N[C@H](C(=O)N1CCC[C@H]1C(N)=O)[C@@H](C)O` [pCT] (H-CSNLSTCVLSAYWRNLNNFHRFSGMGFGPETP-NH2; disulfide 1-7), the maximum response (Emax) at hCTR I300A was 117 ± 11%; at hCTR R362A (setting [1]), 138 ± 9%; at hCTR S364A, 166 ± 16%; at hCTR Y284A it was 104 ± 9%; at hCTR Y372A it was 137 ± 13%. Further, the EC50 is 0.0501 nM on hCTR I300A; 0.182 nM at hCTR R362A (R362A, mean ± S.E.M.); 0.603 nM at hCTR S364A; 0.0631 nM at hCTR Y284A; 1.15 nM at hCTR Y372A.
As for `CC(C)C[C@H](NC(=O)[C@H](CC(N)=O)NC(=O)[C@H](CC(N)=O)NC(=O)[C@H](CO)NC(=O)[C@H](CO)NC(=O)[C@H](CCCNC(=N)N)NC(=O)[C@@H](NC(=O)[C@H](CC(C)C)NC(=O)[C@H](Cc1ccccc1)NC(=O)[C@H](CC(N)=O)NC(=O)[C@H](C)NC(=O)[C@H](CC(C)C)NC(=O)[C@H](CCCNC(=N)N)NC(=O)[C@H](CCC(N)=O)NC(=O)[C@@H](NC(=O)[C@H](C)NC(=O)[C@@H]1CSSC[C@H](NC(=O)[C@@H](N)CCCCN)C(=O)N[C@@H](CC(N)=O)C(=O)N[C@@H]([C@@H](C)O)C(=O)N[C@@H](C)C(=O)N[C@@H]([C@@H](C)O)C(=O)N1)[C@@H](C)O)C(C)C)C(=O)NCC(=O)N1CCC[C@H]1C(=O)N[C@H](C(=O)N[C@@H](CC(C)C)C(=O)N1CCC[C@H]1C(=O)N1CCC[C@H]1C(=O)N[C@H](C(=O)N[C@@H](CC(N)=O)C(=O)N[C@H](C(=O)NCC(=O)N[C@@H](CO)C(=O)N[C@@H](CC(N)=O)C(=O)N[C@H](C(=O)N[C@@H](Cc1ccc(O)cc1)C(N)=O)[C@@H](C)O)C(C)C)[C@@H](C)O)C(C)C` [rAmy], the Emax worked out at 109 ± 10% at hCTR I300A; 88 ± 12% on hCTR R362A; 56 ± 7% on hCTR S364A; 101 ± 10% at hCTR Y284A; 170 ± 26% at hCTR Y372A.
Turning to `CC(C)C[C@H](NC(=O)CNC(=O)[C@H](C)NC(=O)[C@H](CC(C)C)NC(=O)[C@H](CCCNC(=N)N)NC(=O)[C@H](Cc1cnc[nH]1)NC(=O)[C@@H](NC(=O)[C@@H](NC(=O)[C@@H]1CSSC[C@H](NC(=O)[C@H](C)N)C(=O)N[C@@H](CC(=O)O)C(=O)N[C@@H]([C@@H](C)O)C(=O)N[C@@H](C)C(=O)N[C@@H]([C@@H](C)O)C(=O)N1)C(C)C)[C@@H](C)O)C(=O)N[C@@H](CC(C)C)C(=O)N[C@@H](CO)C(=O)N[C@@H](CCCNC(=N)N)C(=O)N[C@@H](CO)C(=O)NCC(=O)NCC(=O)N[C@H](C(=O)N[C@H](C(=O)N[C@@H](CCCCN)C(=O)N[C@@H](CC(N)=O)C(=O)N[C@@H](CC(N)=O)C(=O)N[C@@H](Cc1ccccc1)C(=O)N[C@H](C(=O)N1CCC[C@H]1C(=O)N[C@H](C(=O)N[C@@H](CC(N)=O)C(=O)N[C@H](C(=O)NCC(=O)N[C@@H](CO)C(=O)N[C@@H](CCCCN)C(=O)N[C@@H](C)C(=O)N[C@@H](Cc1ccccc1)C(N)=O)C(C)C)[C@@H](C)O)C(C)C)C(C)C)C(C)C` [hαCGRP], the Emax turned out to be 73 ± 14% on hCTR I300A; 51 ± 9% on hCTR R362A (setting [1]); 83 ± 10% at hCTR S364A; 139 ± 22% on hCTR Y284A; 36 ± 8% on hCTR Y372A. Besides, the EC50 at hCTR I300A was 19.5 nM; at hCTR R362A (R362A, mean ± S.E.M.) it was 17.8 nM; on hCTR S364A, 16.6 nM; on hCTR Y284A, 19.1 nM; on hCTR Y372A, 123 nM.
